Data on 14 compounds can be found in patent US20250099423A1, “PIPERAZINE-BASED AGONISTS OF LFA-1 AND VLA-4” (Texas Heart Institute, priority 2021, published 2025).

One assay deals with T1, α4β1/VCAM-1 (Homo sapiens, UniProt P05556+P13612).
T1 construct: The Jurkat (VCAM-1 assays) and HSB (ICAM-1 assays) cell lines were obtained from American Type Culture Collection; endogenous in cells; host or cells: Jurkat cells (ATCC)
Nature of the assay: Static cell adhesion assay, Jurkat cells on VCAM-1 (α4β1/VCAM-1). It counts as cell-based. Particulars: ratio compound activity/control THI0019 (average 33 μM) run on the same plate. Here is the method:
(§1) For in vitro cell adhesion assays, compounds were dissolved in DMSO to make a series of stock solutions such that a 1:100 dilution in assay buffer would yield the desired final working concentrations in 1% DMSO (vehicle). Human VCAM-1 and ICAM-1 were purchased from R&D Systems (Minneapolis, MN). The Jurkat (VCAM-1 assays) and HSB (ICAM-1 assays) cell lines were obtained from American Type Culture Collection (Manassas, VA) and were maintained in recommended culture media.
(§2) Assays were performed as previously described in 1. Vanderslice, P., Woodside, D. G., Caivano, A. R., Decker, E. R., Munsch, C. L., Sherwood, S. J., Lejeune, W. S., Miyamoto, Y. J., McIntyre, B. W., Tilton, R. G., and Dixon, R. A. (2010) Potent in vivo suppression of inflammation by selectively targeting the high affinity conformation of integrin alpha4beta1. Biochem Biophys Res Commun 400, 619-624; and 2. Vanderslice, P., Biediger, R. J., Woodside, D. G., Brown, W. S., Khounlo, S., Warier, N. D., Gundlach, C. W. t., Caivano, A. R., Bornmann, W. G., Maxwell, D. S., McIntyre, B. W., Willerson, J. T., and Dixon, R. A. (2013) Small molecule agonist of very late antigen-4 (VLA-4) integrin induces progenitor cell adhesion. J Biol Chem 288, 19414-19428. VCAM-1 or ICAM-1 ligand in 50 μL of 50 mM Tris-HCl (pH 7.4), 150 mM NaCl, (TBS) was added to wells of a 96-well plate and allowed to coat overnight at 4° C. To maximize the window to evaluate agonist activity, a sub-optimal coating concentration of ligand was used, typically between 0.5 and 5 μg/mL in 50 μL TBS for VCAM-1 and ICAM-1 respectively. This ligand concentration corresponded approximately to that which would yield≤ 5% adhesion as determined by dose-response curves. Briefly, 2×10^6 cells were labeled for 30 minutes with calcein-AM (Molecular Probes), washed, resuspended in binding buffer, and added to triplicate wells of ligand-coated plates (2×10^5 cells/well) that had been blocked with 2% BSA. After a 30-minute incubation at 37° C., the plates were washed 3 times with binding buffer, the adherent cells were lysed, and fluorescence was measured on a Tecan Safire^2 plate reader. The binding buffer was PBS with 1 mM MgCl2, 50% FBS for α4β1/VCAM-1 assays and PBS with 2 mM MgCl2, 5 mM EGTA, 50% FBS for αLβ2/ICAM-1 assays. EC50 is defined as the concentration of compound required to achieve 50% of the maximal response.

Another assay deals with T2, LFA-1 (Homo sapiens, UniProt P05107+P20701).
T2 construct: The Jurkat (VCAM-1 assays) and HSB (ICAM-1 assays) cell lines were obtained from American Type Culture Collection; endogenous in cells; host or cells: HSB cells (ATCC)
Briefly: Static cell adhesion assay, HSB cells on ICAM-1 (αLβ2/ICAM-1; LFA-1). It counts as cell-based. Particulars: Dose 3 μM, compound and THI0349 at the same concentration; ratio >1 = more potent agonist. Here is the method: as §1, §2
THI0019 and THI0349 (average 11 μM) reported values here were obtained under the assay conditions reported herein and ran higher in the presence of serum than those values under different assay conditions. […] Relative to THI0019 (average 33 μM) as a control against CS1, the ratio of (compound activity/control) is as follows: Group I< or =1. Group II at least a ratio of >1 up to 2× that of THI0019 ran on the same plate; Group III is >2× of THI0019 but less than 5×; and Group IV>5× of THI0019 (with an upper limit of approximately 200 mM). In relation to LAD (Leukocyte Adhesion Deficiency), LFA-1 ratios are determined by dividing the relative fluorescence units (RFU) of each compound over that of the reference standard of THI0349, (RFU Compound/RFU of THI0349). Against LFA-1, the signal for THI0349 at 3 μM was compared to the claimed compounds at the same concentration.

T2 sequence (P20701 26-1170): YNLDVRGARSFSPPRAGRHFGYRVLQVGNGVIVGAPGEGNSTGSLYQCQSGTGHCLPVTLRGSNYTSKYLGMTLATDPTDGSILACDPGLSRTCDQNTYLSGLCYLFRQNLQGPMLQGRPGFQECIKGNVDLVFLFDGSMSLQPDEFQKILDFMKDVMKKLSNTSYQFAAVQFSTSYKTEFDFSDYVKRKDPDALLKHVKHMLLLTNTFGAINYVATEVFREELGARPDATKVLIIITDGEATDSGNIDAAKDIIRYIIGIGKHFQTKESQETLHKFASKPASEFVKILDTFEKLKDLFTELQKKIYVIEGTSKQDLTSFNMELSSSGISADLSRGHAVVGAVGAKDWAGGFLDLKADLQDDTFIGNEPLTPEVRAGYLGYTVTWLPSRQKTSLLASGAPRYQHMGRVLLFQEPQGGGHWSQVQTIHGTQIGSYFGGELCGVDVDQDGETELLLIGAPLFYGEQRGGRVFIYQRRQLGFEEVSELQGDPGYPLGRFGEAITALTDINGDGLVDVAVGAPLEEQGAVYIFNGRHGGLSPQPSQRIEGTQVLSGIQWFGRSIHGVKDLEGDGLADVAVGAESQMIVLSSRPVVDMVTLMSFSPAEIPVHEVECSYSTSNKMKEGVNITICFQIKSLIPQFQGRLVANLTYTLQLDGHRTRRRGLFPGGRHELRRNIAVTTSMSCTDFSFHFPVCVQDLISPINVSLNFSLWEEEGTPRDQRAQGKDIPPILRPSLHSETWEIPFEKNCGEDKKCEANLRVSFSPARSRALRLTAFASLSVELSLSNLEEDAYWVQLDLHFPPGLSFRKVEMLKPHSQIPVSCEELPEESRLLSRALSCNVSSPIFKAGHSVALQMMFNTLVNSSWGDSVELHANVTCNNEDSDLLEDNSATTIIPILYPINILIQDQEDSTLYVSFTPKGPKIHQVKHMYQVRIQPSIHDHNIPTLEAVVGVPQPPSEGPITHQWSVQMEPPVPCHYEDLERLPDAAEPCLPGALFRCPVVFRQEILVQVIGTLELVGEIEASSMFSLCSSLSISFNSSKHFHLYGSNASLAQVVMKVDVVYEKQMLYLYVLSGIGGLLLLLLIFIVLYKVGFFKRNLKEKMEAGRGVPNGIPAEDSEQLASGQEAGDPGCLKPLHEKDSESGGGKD
T2 sequence (P05107 23-769): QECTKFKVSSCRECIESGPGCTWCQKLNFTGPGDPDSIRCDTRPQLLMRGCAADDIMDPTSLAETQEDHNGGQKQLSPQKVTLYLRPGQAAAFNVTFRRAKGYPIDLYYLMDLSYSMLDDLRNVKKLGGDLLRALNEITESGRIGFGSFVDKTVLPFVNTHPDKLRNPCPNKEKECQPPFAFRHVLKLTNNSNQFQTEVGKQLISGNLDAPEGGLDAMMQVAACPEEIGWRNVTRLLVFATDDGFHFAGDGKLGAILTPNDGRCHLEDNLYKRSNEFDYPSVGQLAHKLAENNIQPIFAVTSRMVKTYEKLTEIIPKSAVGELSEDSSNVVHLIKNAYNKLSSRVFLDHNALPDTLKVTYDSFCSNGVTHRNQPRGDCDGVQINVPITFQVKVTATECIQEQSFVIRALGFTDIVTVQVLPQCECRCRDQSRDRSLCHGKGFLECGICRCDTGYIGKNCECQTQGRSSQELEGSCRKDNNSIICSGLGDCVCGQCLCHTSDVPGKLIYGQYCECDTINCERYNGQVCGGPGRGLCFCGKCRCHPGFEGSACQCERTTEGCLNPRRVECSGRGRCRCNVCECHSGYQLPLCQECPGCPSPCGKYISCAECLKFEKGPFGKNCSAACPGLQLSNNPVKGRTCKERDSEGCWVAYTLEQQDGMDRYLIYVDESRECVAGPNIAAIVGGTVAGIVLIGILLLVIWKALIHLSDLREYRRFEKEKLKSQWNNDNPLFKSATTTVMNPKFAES
T1 sequence (P13612 34-1032): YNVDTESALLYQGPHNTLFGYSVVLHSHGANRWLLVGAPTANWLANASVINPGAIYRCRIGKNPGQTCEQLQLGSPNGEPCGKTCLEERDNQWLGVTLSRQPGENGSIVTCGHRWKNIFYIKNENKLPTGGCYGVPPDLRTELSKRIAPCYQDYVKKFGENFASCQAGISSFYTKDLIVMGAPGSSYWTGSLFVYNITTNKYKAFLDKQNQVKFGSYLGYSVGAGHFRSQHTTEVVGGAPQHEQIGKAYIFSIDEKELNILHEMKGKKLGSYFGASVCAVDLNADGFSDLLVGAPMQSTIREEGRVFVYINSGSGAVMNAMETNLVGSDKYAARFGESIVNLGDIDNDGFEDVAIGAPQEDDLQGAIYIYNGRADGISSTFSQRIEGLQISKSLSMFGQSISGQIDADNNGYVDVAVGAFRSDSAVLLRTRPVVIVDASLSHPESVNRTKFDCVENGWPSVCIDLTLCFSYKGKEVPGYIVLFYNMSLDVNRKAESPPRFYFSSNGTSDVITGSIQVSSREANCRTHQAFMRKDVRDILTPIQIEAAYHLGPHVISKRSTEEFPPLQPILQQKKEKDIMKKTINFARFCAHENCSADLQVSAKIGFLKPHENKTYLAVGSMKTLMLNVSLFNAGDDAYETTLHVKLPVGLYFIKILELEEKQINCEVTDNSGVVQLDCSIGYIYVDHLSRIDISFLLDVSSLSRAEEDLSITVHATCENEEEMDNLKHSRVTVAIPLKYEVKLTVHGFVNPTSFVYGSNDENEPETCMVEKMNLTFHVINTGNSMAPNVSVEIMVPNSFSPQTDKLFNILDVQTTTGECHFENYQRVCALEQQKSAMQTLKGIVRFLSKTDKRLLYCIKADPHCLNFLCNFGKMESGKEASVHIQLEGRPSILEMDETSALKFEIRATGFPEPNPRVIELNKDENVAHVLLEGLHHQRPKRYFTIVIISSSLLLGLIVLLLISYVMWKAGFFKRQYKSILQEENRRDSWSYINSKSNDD
T1 sequence (P05556 21-798): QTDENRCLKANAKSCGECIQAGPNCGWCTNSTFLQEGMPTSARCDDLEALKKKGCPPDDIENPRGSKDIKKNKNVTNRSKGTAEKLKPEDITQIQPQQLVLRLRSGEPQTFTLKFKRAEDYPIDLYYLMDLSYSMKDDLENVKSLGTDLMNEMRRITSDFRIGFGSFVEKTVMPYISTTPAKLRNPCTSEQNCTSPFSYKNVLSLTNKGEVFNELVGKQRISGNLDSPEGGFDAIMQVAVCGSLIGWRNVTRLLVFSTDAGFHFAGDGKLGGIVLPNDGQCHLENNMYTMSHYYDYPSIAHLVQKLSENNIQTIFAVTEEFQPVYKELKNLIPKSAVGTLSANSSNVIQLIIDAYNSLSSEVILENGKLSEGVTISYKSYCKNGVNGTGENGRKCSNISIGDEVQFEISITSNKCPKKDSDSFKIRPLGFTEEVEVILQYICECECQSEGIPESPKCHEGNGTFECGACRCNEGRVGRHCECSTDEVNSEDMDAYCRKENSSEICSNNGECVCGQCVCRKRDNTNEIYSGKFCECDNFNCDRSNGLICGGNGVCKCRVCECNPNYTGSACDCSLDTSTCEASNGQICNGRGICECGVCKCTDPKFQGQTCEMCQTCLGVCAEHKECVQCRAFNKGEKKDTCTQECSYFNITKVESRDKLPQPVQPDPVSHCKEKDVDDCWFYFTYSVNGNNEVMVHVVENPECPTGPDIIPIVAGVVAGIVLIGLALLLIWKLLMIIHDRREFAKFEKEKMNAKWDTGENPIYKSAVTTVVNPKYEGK

`COc1ccc(CN(Cc2ccc(N(C)C)cc2)C(=O)CN2CCN(C(=O)OCc3ccccc3)CC2)cc1` [benzyl 4-(2-((4-(dimethylamino)benzyl)(4-methoxybenzyl)amino)-2-oxoethyl)piperazine-1-carboxylate]: on α4β1/VCAM-1, the “Average Ratio Compound to THI0019 (Activity against CS1)” value (“Average Ratio Compound to THI0019” below) was “Group III (Group III is >2× of THI0019 but less than 5×)”. Moreover, the “LAD Raw Fluorescence Units against LFA-1; Ratio of raw counts Compound/THI0349” value on LFA-1 is listed as 1.2 fold increased response.

As for `COc1ccc(CCOC(=O)N2CCN(CC(=O)N(Cc3ccc(OC)cc3)Cc3ccc(OC)cc3)CC2)cc1` [4-methoxyphenethyl 4-(2-(bis(4-methoxybenzyl)amino)-2-oxoethyl)piperazine-1-carboxylate], on α4β1/VCAM-1, the “Average Ratio Compound to THI0019” value is “Group II (Group II at least a ratio of >1 up to 2× that of THI0019 ran on the same plate)”. For the same compound, at LFA-1, the “LAD Raw Fluorescence Units against LFA-1; Ratio of raw counts Compound/THI0349” value is listed as 4.6 fold increased response.

As to `COc1ccc(CN(CC(C)C)C(=O)CN2CCN(CC(=O)N(Cc3ccc(OC)cc3)CC(C)C)CC2)cc1` [2,2′-(piperazine-1,4-diyl)bis(N-isobutyl-N-(4-methoxybenzyl)acetamide)], the “Average Ratio Compound to THI0019” value at α4β1/VCAM-1 is “Group IV (Group IV>5× of THI0019 (with an upper limit of approximately 200 mM))”. In addition, the “LAD Raw Fluorescence Units against LFA-1; Ratio of raw counts Compound/THI0349” value at LFA-1 came out at 0.9 fold response.

With `COc1ccc(CN(Cc2ccc(N(C)C)cc2)C(=O)CN2CCN(C(=O)OCc3cccc(OC)c3)CC2=O)cc1` [3-methoxybenzyl 4-(2-((4-(dimethylamino)benzyl)(4-methoxybenzyl)amino)-2-oxoethyl)-3-oxopiperazine-1-carboxylate], the “Average Ratio Compound to THI0019” value at α4β1/VCAM-1 is listed as “Group II (Group II at least a ratio of >1 up to 2× that of THI0019 ran on the same plate)”. Moreover, the “LAD Raw Fluorescence Units against LFA-1; Ratio of raw counts Compound/THI0349” value at LFA-1 came to 4.2 fold increased response.

Consider `COc1cccc(CN(Cc2cccc(OC)c2)C(=O)CN2CCN(C(=O)OCc3ccccc3)CC2)c1` [benzyl 4-(2-(bis(3-methoxybenzyl)amino)-2-oxoethyl)piperazine-1-carboxylate], for which the “Average Ratio Compound to THI0019” value on α4β1/VCAM-1 is reported as “Group I (Group I< or =1)”. The “LAD Raw Fluorescence Units against LFA-1; Ratio of raw counts Compound/THI0349” value on LFA-1 was found to be 1.42 fold increased response.

On to `COc1ccc(CN(Cc2ccc(OC)cc2)C(=O)CN2CCN(C(=O)Cc3cccc(OC)c3)CC2=O)cc1` [N,N-bis(4-methoxybenzyl)-2-(4-(2-(3-methoxyphenyl)acetyl)-2-oxopiperazin-1-yl)acetamide], for which the “Average Ratio Compound to THI0019” value at α4β1/VCAM-1 is “Group III (Group III is >2× of THI0019 but less than 5×)”. The “LAD Raw Fluorescence Units against LFA-1; Ratio of raw counts Compound/THI0349” value at LFA-1 is 0.5 fold response.

Take `COc1cccc(CN(Cc2cccc(OC)c2)C(=O)OCCN2CCN(CCOC(=O)N(Cc3cccc(OC)c3)Cc3cccc(OC)c3)CC2)c1` [piperazine-1,4-diylbis(ethane-2,1-diyl) bis(bis(3-methoxybenzyl)carbamate)]: at α4β1/VCAM-1, the “Average Ratio Compound to THI0019” value was “Group I (Group I< or =1)”. For the same compound, the “LAD Raw Fluorescence Units against LFA-1; Ratio of raw counts Compound/THI0349” value on LFA-1 is 4.7 fold increased response.

Regarding `COc1ccc(CN(Cc2ccc(OC)cc2)C(=O)CN2CCN(C(=O)OCc3ccccc3)CC2)cc1` [benzyl 4-(2-(bis(4-methoxybenzyl)amino)-2-oxoethyl)piperazine-1-carboxylate], the “Average Ratio Compound to THI0019” value on α4β1/VCAM-1 is “Group II (Group II at least a ratio of >1 up to 2× that of THI0019 ran on the same plate)”. The “LAD Raw Fluorescence Units against LFA-1; Ratio of raw counts Compound/THI0349” value at LFA-1 is 3.3 fold increased response.

Consider `COc1ccc(CN(CC(C)C)C(=O)CN2CC(=O)N(CC(=O)N(Cc3ccc(OC)cc3)CC(C)C)CC2=O)cc1` [2,2′-(2,5-dioxopiperazine-1,4-diyl)bis(N-isobutyl-N-(4-methoxybenzyl)acetamide)], for which the “Average Ratio Compound to THI0019” value at α4β1/VCAM-1 is “Group III (Group III is >2× of THI0019 but less than 5×)”. Further, at LFA-1, the “LAD Raw Fluorescence Units against LFA-1; Ratio of raw counts Compound/THI0349” value came out at 0.15 fold response.

Take `O=C(CCCCN1CCN(C(=O)OCc2ccccc2)CC1)N(Cc1cccs1)Cc1cccs1` [benzyl 4-(5-(bis(thiophen-2-ylmethyl)amino)-5-oxopentyl)piperazine-1-carboxylate]: the “Average Ratio Compound to THI0019” value on α4β1/VCAM-1 is on record as “Group I (Group I< or =1)”. In addition, the “LAD Raw Fluorescence Units against LFA-1; Ratio of raw counts Compound/THI0349” value at LFA-1 is on record as 0.9 fold response.

Take `COc1cccc(CN(Cc2cccc(OC)c2)C(=O)OCCN2CC(=O)N(CCOC(=O)N(Cc3cccc(OC)c3)Cc3cccc(OC)c3)CC2=O)c1` [(2,5-dioxopiperazine-1,4-diyl)bis(ethane-2,1-diyl) bis(bis(3-methoxybenzyl)carbamate)]: the “Average Ratio Compound to THI0019” value at α4β1/VCAM-1 is “Group I (Group I< or =1)”. In addition, on LFA-1, the “LAD Raw Fluorescence Units against LFA-1; Ratio of raw counts Compound/THI0349” value was found to be 3.4 fold increased response.

As to `COc1ccc(CN(Cc2ccc(OC)cc2)C(=O)CN2CCN(CC(=O)N(Cc3ccc(OC)cc3)Cc3ccc(OC)cc3)C(=O)C2)cc1` [2,2′-(2-oxopiperazine-1,4-diyl)bis(N,N-bis(4-methoxybenzyl)acetamide)], the “Average Ratio Compound to THI0019” value at α4β1/VCAM-1 was “Group I (Group I< or =1)”. The “LAD Raw Fluorescence Units against LFA-1; Ratio of raw counts Compound/THI0349” value at LFA-1 came to 5.9 fold increased response.

As for `COc1ccc(CN(Cc2ccc(OC)cc2)C(=O)CCCCN2CCN(C(=O)OCc3ccccc3)CC2)cc1` [benzyl 4-(5-(bis(4-methoxybenzyl)amino)-5-oxopentyl)piperazine-1-carboxylate], the “Average Ratio Compound to THI0019” value on α4β1/VCAM-1 was “Group II (Group II at least a ratio of >1 up to 2× that of THI0019 ran on the same plate)”. For the same compound, the “LAD Raw Fluorescence Units against LFA-1; Ratio of raw counts Compound/THI0349” value at LFA-1 is reported as 4.3 fold increased response.

As for `COc1ccc(CN(Cc2ccc(N(C)C)cc2)C(=O)CN2CCN(C(=O)c3cccc(OC)c3)CC2=O)cc1` [N-(4-(dimethylamino)benzyl)-2-(4-(3-methoxybenzoyl)-2-oxopiperazin-1-yl)-N-(4-methoxybenzyl)acetamide], the “Average Ratio Compound to THI0019” value on α4β1/VCAM-1 is listed as “Group IV (Group IV>5× of THI0019 (with an upper limit of approximately 200 mM))”. Also, at LFA-1, the “LAD Raw Fluorescence Units against LFA-1; Ratio of raw counts Compound/THI0349” value is reported as 1.2 fold increased response.
